Measurements taken from patent US20070155707A1 (Kadmus Pharmaceuticals, Inc., priority 2005, published 2007).

Key:
FAAH = details: Kathuria 2003; Mor 2004; WO 2004/033422; cited from earlier work
[1] = target: T1, fatty acid amide hydrolase (FAAH) (Homo sapiens, UniProt O00519); test: FAAH LC-MS/MS screening assay, IC50 determination (anandamide hydrolysis by human liver microsomes); format: biochemical; details: inhibition of FAAH activity
T1 construct: 25 μL of human liver microsomes (31.3 μg); from tissue; host or cells: human liver microsomes
T1 sequence (O00519 1-579): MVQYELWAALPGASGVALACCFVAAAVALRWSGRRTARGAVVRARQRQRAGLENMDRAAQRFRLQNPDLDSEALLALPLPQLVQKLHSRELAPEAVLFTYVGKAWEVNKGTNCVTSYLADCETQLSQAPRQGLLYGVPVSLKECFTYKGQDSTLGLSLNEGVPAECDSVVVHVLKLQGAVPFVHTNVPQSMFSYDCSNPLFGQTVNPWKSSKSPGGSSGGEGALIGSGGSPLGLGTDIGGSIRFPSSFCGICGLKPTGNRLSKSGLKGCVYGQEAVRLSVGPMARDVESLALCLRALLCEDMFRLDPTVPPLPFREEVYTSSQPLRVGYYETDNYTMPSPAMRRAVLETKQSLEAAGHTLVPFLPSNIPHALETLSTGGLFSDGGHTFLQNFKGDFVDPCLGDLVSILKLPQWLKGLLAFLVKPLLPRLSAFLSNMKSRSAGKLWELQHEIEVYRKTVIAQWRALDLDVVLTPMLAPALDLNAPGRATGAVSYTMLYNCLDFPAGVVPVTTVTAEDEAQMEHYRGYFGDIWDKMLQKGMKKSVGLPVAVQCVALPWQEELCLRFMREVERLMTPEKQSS
Procedure: For determining IC50 values for candidate FAAH inhibitor compounds, the above method is used with an adjusted FAAH inhibitor concentration. In the IC50 assay, the FAAH inhibitor is added at a concentration range of approximately 3 μM to 0.03 nM. The final calculation of IC50 is determined by first transforming the concentrations by “X=log(X)” and then analyzing the data with a sigmoidal dose-response curve (no constraints) using GraphPad Prism version 4.00 for Windows (GraphPad Software, San Diego Calif. USA, www.graphpad.com).

[2] = Determination of pharmacokinetics in rats following oral administration (plasma and brain); format: in vivo, rat; details: for AUC / Cmax: rat, plasma; for AUC / Cmax / Brain AUC / Brain Cmax: 10 mg/kg oral gavage, solution
Procedure: Potential FAAH inhibitors are formulated for oral (p.o.), intraperitoneal (i.p.) or intravenous (i.v.) delivery to rats. Formulated compounds are administered and the animals were sacrificed at pre-determined time points post dose. At sacrifice, blood samples are collected into EDTA plasma tubes and whole brains were snap frozen in liquid nitrogen. EDTA plasma was isolated from blood samples after centrifugation. Brain and plasma samples are stored at −80° C. prior to analysis. All samples (brain and plasma) are analyzed for the concentrations of test compound (FAAH inhibitor), metabolites of the test compound and endogenous fatty acid ethanolamide levels (including anandamide, oleoylethanolamide, and palmitoylethanolamide) by LC-MS/MS. Levels of these compounds are compared across time points to determine pharmacokinetic properties of the test compounds and partial pharmacological effects of inhibiting FAAH activity (including changes of fatty acid ethanolamide levels).
The pharmacokinetic properties of compounds provided herein were assessed in rats following oral administration as a solution. […] The solution of the test compound was administered to rats at a dose of 10 mg/kg via oral gavage.

SMILES	Inhibition of FAAH activity (in words) (FAAH)	IC50 [1] [nM]	AUC [2] [ng·h/mL]	Cmax [2] [ng/mL]	Brain AUC [2]	Brain Cmax [2]	Crossing of the blood brain barrier ([2]; 10 mg/kg oral, conclusion from Table 2)
NC(=O)c1cccc(-c2cccc(OC(=O)NC3CCCCC3)c2)c1	potent and selective inhibitors of FAAH activity						
O=C(NCC1CCCCC1)Oc1cccc(C(=O)O)c1 [Compound 2, 3-(Cyclohexylmethylcarbamoyloxy)benzoic acid]		< 100	1700	1250			
O=C(NCC1CCCCC1)Oc1ccc(C(=O)O)cc1 [Compound 4, 4-(Cyclohexylmethylcarbamoyloxy)benzoic acid]		< 100	8840	7720	483 ng·h/g	475 ng/g	does not substantially cross the blood brain barrier
O=C(O)Cc1cccc(OC(=O)NCC2CCCCC2)c1 [Compound 7]		< 100					
O=C(NCC1CCCCC1)Oc1cccc(-c2nnn[nH]2)c1 [Compound 11, 3-(1H-Tetrazol-5-yl)phenyl cyclohexylmethylcarbamate]		< 100					
NC(=O)c1cccc(-c2cccc(OC(=O)NC3CCCCC3)c2)c1 [KDS-4103, reference compound]			6730	3160	9,737 ng * hr/g	4,584 ng/g	
